Measured values published in patent US20140228287A1, “1-[(3-CYANO-PYRIDIN-2-YL)METHYL]-3-METHYL-7-(2-BUTYN-1-YL)-8-[3-(R)-AMINO-PIPERIDIN-1-YL]-AXANTHINE FOR THE TREATMENT OF A METABOLIC DISORDER OF A PREDOMINANTLY CARNIVOROUS NON-HUMAN ANIMAL” (BOEHRINGER INGELHEIM VETMEDICA GMBH, priority 2010, published 2014).
Counter-ions that a name gives are not always drawn. Like-named read-outs stand apart in the source and are kept apart here.

Columns and labels:
plasma DPP IV = biological target: T1, plasma DPP IV (Rattus norvegicus, UniProt P14740); test: Plasma DPP IV activity after oral administration, rat; type: in vivo; conditions: for inhibition at 1 mg/kg: 1 mg/kg oral; for ED50: oral, read-out: ED50 for inhibition of plasma DPP IV activity
T1 construct: from tissue
Description: The effect of 1-[(3-cyano-pyridin-2-yl)methyl]-3-methyl-7-(2-butyn-1-yl)-8-[3-(R)-amino-piperidin-1-yl]-xanthine on plasma DPP IV activity after oral administration was investigated in the rat, the Beagle dog and the Rhesus monkey. These investigations were conducted as described in the following.
Male HanWistar rats (Crl:WI(Han)) were obtained from Charles River (Germany). Animals were fed ad libitum with a standard pelleted diet (Diet No. 3438, Provimi Kliba, Switzerland) and had free access to water. Animals were housed in groups with a 12 h/12 h light/dark cycle (lights out between 6 p.m. and 6 a.m.). The rats were used for the experiment at a body weight of about 260 g. Such freely fed male HanWistar rats (n=5 per group) were administered oral doses of vehicle or 1-[(3-cyano-pyridin-2-yl)methyl]-3-methyl-7-(2-butyn-1-yl)-8-[3-(R)-amino-piperidin-1-yl]-xanthine monohydrochloride at 0.1, 0.3, 1, and 3 mg/kg body weight. Blood samples were drawn from the retrobulbal venous plexus under isoflurane anaesthesia. Blood was collected in EDTA tubes prior to administration of vehicle or 1-[(3-cyano-pyridin-2-yl)methyl]-3-methyl-7-(2-butyn-1-yl)-8-[3-(R)-amino-piperidin-1-yl]-xanthine monohydrochloride and subsequently at 0.5, 1, 2, 3, 4, 7, and 24 hour time points post dose. Plasma was prepared following blood collection and frozen for determination of DPP-IV activity.

plasma DPP-4 = biological target: T2, plasma DPP-4 (Rattus norvegicus, UniProt P14740); test: Inhibition of DPP-4 in rat plasma (in vitro); type: biochemical; conditions: wistar rat plasma
T2 construct: from tissue
Description: Plasma obtained from 3 different cats and one Wistar rat as control were each incubated with a range of concentrations of 1-[(3-cyano-pyridin-2-yl)methyl]-3-methyl-7-(2-butyn-1-yl)-8-[3-(R)-amino-piperidin-1-yl]-xanthine monohydrochloride. Plasma DPP-4 activity was measured in the following way (which is also described in Eckhard et al. (2007), J. Med. Chem., Vol. 50, 6450-6453, Supporting Information).
Rat and cat plasma was used for ex vivo measurement of DDP-4 activity. Blood was collected in EDTA tubes and subjected to centrifugation. The resultant supernatant was aliquoted and frozen. […]
The assay itself was initiated by mixing 50 μl of diluted plasma with 50 μl of diluted substrate (Ala-Pro-AFC) and performed in black flat-bottom 96-well plates. The plates were then incubated at room temperature for 1 h and fluorescence was measured at excitation/emission wavelengths of 405/535 nm. Data analysis was performed by calculating the fluorescence in the presence of the test compound compared to the fluorescence of the vehicle control after subtracting the background fluorescence.
From a plot of concentration against activity (equivalent to fluorescence units) kinetic data could be collected, e.g. the half-maximal inhibitory concentration (IC50) of the tested compound in the different animals, which data are given in the following Table 2.

GLP-1 = test: OGTT in normal cats after 9 mg per cat: GLP-1 concentrations; type: in vivo; conditions: for GLP-1 concentration: 9 mg/cat oral, OGTT beginning 1 h after
Description: Cats were fasted overnight and then lightly tranquilized with tiletamine/zolazepam (2 mg per cat intravenously (Fort Dodge Animal Health, Ft. Dodge, Iowa, USA). Glucose was administered via gastric tube (2 g/kg body weight; 80% w/v) after a baseline blood sample had been obtained. […]
Glucose measurements were performed using a colorimetric glucose oxidase method (DCL, Oxford, Conn., USA). Plasma insulin was measured as described in Hoenig et al. (1989), J. Endocrinol., vol. 121, p. 249-251. The concentrations of active GLP-1 were measured with an ELISA kit from Linco (St. Charles, Mo., USA). All samples were tested in duplicate. […] The interassay coefficient of variation (CV) was 7.6%, and the intra-assay CV was 12.1%.
An OGTT like in Example 11 was performed in […] beginning 1 h after oral administration of 9 mg 1-[(3-cyano-pyridin-2-yl)methyl]-3-methyl-7-(2-butyn-1-yl)-8-[3-(R)-amino-piperidin-1-yl]-xanthine monohydrochloride or placebo (2 groups with 6 animals each; 3 male and 3 females per group).

T1 sequence (P14740 37-767 limits assumed): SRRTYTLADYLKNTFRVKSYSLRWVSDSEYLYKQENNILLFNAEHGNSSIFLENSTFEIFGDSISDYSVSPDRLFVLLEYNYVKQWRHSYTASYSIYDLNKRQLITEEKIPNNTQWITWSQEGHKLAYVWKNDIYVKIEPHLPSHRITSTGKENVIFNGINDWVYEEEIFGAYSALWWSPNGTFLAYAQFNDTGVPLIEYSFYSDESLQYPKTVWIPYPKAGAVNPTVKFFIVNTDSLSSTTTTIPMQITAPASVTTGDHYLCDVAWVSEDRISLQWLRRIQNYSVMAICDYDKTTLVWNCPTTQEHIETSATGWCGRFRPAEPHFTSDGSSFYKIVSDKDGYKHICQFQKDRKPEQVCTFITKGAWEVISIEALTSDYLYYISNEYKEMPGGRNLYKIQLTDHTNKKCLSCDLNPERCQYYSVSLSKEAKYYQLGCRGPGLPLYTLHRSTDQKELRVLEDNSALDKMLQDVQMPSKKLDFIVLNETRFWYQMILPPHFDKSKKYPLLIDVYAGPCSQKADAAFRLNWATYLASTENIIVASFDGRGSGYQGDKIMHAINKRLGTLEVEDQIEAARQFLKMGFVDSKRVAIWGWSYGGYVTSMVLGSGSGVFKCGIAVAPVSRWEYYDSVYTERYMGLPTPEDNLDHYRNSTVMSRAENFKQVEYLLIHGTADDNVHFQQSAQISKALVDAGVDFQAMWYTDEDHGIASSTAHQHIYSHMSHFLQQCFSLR
T2 sequence (P14740 37-767 limits assumed): as above

With `CC#CCn1c(N2CCC[C@@H](N)C2)nc2c1c(=O)n(Cc1ncccc1C#N)c(=O)n2C` [1-[(3-cyano-pyridin-2-yl)methyl]-3-methyl-7-(2-butyn-1-yl)-8-[3-(R)-amino-piperidin-1-yl]-xanthine monohydrochloride] the inhibition at 1 mg/kg (plasma DPP IV; 7 hours post dose) was 86%, the inhibition at 1 mg/kg (plasma DPP IV; 24 hours post dose) was 64% and the ED50 (plasma DPP IV; 7 h post dose) was 0.4 mg/kg. For the same molecule, the ED50 (plasma DPP IV; 24 h post dose) was 0.6 mg/kg, the IC50 (plasma DPP-4) was 1.95 nM and the hillslope (plasma DPP-4) was −0.8462. The “GLP-1 increase compared to Placebo” value (GLP-1; 9 mg per cat oral, OGTT in normal cats) was “significantly higher compared to Placebo”, the GLP-1 concentration (GLP-1; 60 min after drug administration) was 3.70 pmol/L and the GLP-1 concentration (GLP-1; 65 min after drug administration) was 3.92 pmol/L. It also gave a GLP-1 concentration (GLP-1; 70 min after drug administration) of 4.54 pmol/L, a GLP-1 concentration (GLP-1; 75 min after drug administration) of 7.28 pmol/L and a GLP-1 concentration (GLP-1; 90 min after drug administration) of 16.31 pmol/L. The GLP-1 concentration (GLP-1; 120 min after drug administration) was 26.93 pmol/L, the GLP-1 concentration (GLP-1; 180 min after drug administration) was 23.25 pmol/L and the GLP-1 concentration (GLP-1; 240 min after drug administration) was 14.45 pmol/L. For the same molecule, the GLP-1 concentration (GLP-1; 300 min after drug administration) was 9.60 pmol/L and the GLP-1 concentration (GLP-1; 360 min after drug administration) was 6.04 pmol/L.
